Results published in PMC13128453, “Complexoform-restricted covalent TRMT112 ligands that allosterically agonize METTL5” (Nature Chemical Biology, 2025).

Assays:
REEP5 = biological target: T1, REEP5 (Homo sapiens, UniProt Q00765); assay: cysteine-directed and competitive protein-directed ABPP in cells; assay type: cell-based; conditions: read-out: Competition (%)
T1 construct: endogenous protein in Ramos cells

TRMT112 [1] = biological target: T2, TRMT112 (Homo sapiens, UniProt Q9NRN9+Q9UI30); assay: intact MS kobs/[I] on purified complex; competitive gel-ABPP in HCT116 cells (IC50); assay type: cell-based; parameters: TRMT112-FLAG:HA-METTL5 in HCT116 cells (IC50); purified TRMT112:His-METTL5 (intact MS); with METTL5
T2 sequence (Q9NRN9 whole entry, one chain of several): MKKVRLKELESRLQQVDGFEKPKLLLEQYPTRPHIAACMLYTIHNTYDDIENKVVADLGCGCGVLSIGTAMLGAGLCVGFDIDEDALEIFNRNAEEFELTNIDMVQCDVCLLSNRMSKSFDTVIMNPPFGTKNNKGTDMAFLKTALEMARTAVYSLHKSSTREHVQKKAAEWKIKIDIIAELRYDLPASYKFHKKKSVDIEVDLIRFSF

UVRAG = biological target: T3, UVRAG (Homo sapiens, UniProt Q9P2Y5); assay: cysteine-directed and competitive protein-directed ABPP in cells; assay type: cell-based; conditions: read-out: Competition (%)
T3 construct: endogenous protein in Ramos cells
T3 sequence (Q9P2Y5 1-699): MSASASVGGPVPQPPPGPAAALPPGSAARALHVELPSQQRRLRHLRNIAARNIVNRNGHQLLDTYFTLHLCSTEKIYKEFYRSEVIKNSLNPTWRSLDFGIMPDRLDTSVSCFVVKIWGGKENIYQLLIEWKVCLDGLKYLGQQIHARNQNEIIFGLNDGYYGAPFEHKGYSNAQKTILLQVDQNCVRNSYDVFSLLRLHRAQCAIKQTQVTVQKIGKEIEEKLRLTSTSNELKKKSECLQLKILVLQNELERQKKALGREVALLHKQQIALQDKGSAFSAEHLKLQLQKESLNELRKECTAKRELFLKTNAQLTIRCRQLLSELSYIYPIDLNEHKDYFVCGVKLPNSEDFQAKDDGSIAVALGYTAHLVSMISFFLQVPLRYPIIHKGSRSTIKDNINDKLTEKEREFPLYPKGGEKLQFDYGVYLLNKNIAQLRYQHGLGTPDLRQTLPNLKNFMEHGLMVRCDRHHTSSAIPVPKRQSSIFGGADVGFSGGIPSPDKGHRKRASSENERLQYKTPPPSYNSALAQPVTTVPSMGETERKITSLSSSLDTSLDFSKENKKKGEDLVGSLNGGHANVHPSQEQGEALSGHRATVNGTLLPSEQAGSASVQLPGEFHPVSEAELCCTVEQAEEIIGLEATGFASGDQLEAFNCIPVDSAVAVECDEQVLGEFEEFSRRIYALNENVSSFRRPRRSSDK

RNF14 [2] = biological target: T4, RNF14 (Homo sapiens, UniProt Q9UBS8); assay: cysteine-directed ABPP (Glu-C) and competitive protein-directed ABPP in cells; assay type: cell-based; parameters: endogenous RNF14 in Ramos cells; recombinant RNF14-FLAG in HEK293T cells; conditions: read-out: Competition (%)
T4 sequence (Q9UBS8 1-474): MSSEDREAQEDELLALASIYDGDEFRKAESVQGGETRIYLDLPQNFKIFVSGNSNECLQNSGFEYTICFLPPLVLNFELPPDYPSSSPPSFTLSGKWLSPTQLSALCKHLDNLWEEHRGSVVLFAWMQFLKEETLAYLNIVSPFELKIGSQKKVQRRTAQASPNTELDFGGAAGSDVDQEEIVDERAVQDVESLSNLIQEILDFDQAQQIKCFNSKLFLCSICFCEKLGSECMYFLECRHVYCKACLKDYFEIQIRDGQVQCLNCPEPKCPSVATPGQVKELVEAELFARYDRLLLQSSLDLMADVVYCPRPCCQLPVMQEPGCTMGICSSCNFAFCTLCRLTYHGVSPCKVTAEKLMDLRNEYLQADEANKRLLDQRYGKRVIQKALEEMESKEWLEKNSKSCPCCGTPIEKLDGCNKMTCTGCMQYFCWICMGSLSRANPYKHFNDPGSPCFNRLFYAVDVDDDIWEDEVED

TRMT112 [3] = biological target: T2, TRMT112; assay: intact MS kobs/[I] on purified complex; gel-ABPP and protein-directed ABPP in cells; assay type: binding; parameters: purified WT-TRMT112:His-METTL5 (intact MS); TRMT112-FLAG in HCT116 cells coexpressing HA-METTL5; with METTL5
RNF14 [4] = biological target: T4, RNF14; assay: gel-ABPP and protein-directed ABPP in cells; assay type: cell-based; parameters: RNF14-FLAG expressed in HEK293T cells
TRMT112 [5] = biological target: T2, TRMT112; assay: […] A cocrystal structure; intact MS (kobs/[I][…] s-1); competitive gel-ABPP on purified complex; assay type: binding; parameters: full-length, tag-free TRMT112:METTL5 complex (crystal); TRMT112:His-METTL5 (IC50); with METTL5
[6] = biological target: T5, METTL5 (tag-free, of the tag-free TRMT112:METTL5 complex) (human, UniProt Q9NRN9 1-209); assay: crystal structure; tag-free TRMT112:METTL5 complex modified with FWG-33B in the presence of SAM; crystals in 21% PEG3350, 0.36 M ammonium sulfate, 0.1 M Bis–Tris pH 5.5, 4 °C; 1.3 Å; conditions: both partners purified
T5 construct: METTL5, human, full-length gene codon-optimized for E. coli; same construct as His–METTL5, the His tag removed with TEV protease; By the printed primer a Ser would remain before the first Met after TEV cleavage; also called WT-METTL5; source: E. coli BL21 (DE3), coexpressed with TRMT112, purified (Ni-NTA, TEV cleavage, Ni-NTA, anion exchange, SEC); not shown: His tag, N-terminal, cleaved
T5 sequence (Q9NRN9 whole entry, one chain of several): as the sequence (Q9NRN9 whole entry, one chain of several) above

T1 sequence (Q00765 whole entry): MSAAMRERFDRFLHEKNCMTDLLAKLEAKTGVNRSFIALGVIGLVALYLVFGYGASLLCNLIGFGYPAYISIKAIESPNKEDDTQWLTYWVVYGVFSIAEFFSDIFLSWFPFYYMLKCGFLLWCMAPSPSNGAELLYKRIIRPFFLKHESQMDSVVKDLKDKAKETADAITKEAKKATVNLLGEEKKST

C=CC(=O)N1C[C@@H]2[C@H](C1)[C@@H](c1cccc(OC)c1)C[C@H]2Oc1ccc(NC(C)=O)cc1 [compound 10, FWG-1B]
inhibition at 50 µM (REEP5): > 60% | IC50 (TRMT112 [1]): 12 µM

C=CC(=O)N1C[C@@H]2[C@H](C1)[C@H](Oc1ccc(NC(C)=O)cc1)C[C@H]2c1cccc(OC)c1 [compound 11, FWG-2A]
inhibition at 50 µM (UVRAG): > 80%

C=CC(=O)N1C[C@@H]2[C@H](C1)[C@@H](c1cccc(OC)c1)C[C@@H]2Oc1ccc(NC(C)=O)cc1 [compound 12, FWG-2B]
inhibition at 50 µM (RNF14 [2]): > 80%

C#CCCC(=O)Nc1ccc(O[C@@H]2C[C@H](c3cccc(OC)c3)[C@H]3CN(C(=O)C=C)C[C@H]32)cc1 [compound 14, FWG-3B]
intact MS kobs/[I] on purified complex; gel-ABPP and protein-directed ABPP in ce (TRMT112 [3]): FWG-3B showed enhanced reactivity with TRMT112 exclusively in cells coexpressing the RNA MT METTL5

C#CCCC(=O)Nc1ccc(O[C@H]2C[C@H](c3cccc(OC)c3)[C@H]3CN(C(=O)C=C)C[C@H]32)cc1 [compound 16, FWG-4B]
gel-ABPP and protein-directed ABPP in cells (RNF14 [4]): engagement of recombinant WT-RNF14-FLAG and C68A-RNF14-FLAG, but not C212A-RNF14-FLAG by FWG-4B

C=CC(=O)N1C[C@@H]2[C@H](C1)[C@@H](c1cccc(Cl)c1)C[C@H]2Oc1ccc(NC(C)=O)cc1 [compound 22, FWG-33B]
IC50 (TRMT112 [5]): 470 nM

B1: TRMT112 modified by FWG-33B at C100 (of the FWG-33B-liganded tag-free TRMT112:METTL5 complex) (natural protein, human, UniProt Q9UI30 1-125, looked up)
chain: MKLLTHNLLSSHVRGVGSRGFPLRLQATEVRICPVEFNPNFVARMIPKVEWSAFLEAADNLRLIQVPKGPVEGYEENEEFLRTMHHLLLEVEVIEGTLQCPESGRMFPISRGIPNMLLSEEETES
modifications: covalent adduct between the acrylamide of FWG-33B and C100
notes: TRMT112, human, full-length gene codon-optimized for E. coli, in pACYCDuet-1; also called FWG-33B-modified TRMT112; source: E. coli BL21 (DE3), coexpressed with METTL5, purified as tag-free complex, then treated with 100 μM FWG-33B
binding result [6]: binds
